Patent publication US6737383B1, “Herbicidal oxadiazolidines” (priority 1999, dated 2004)

Assays:
pigweed = assay: Test B pre/postemergence pigweed; assay type: in vivo, Amaranthus retroflexus
Method in brief: (§1)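 Test chemicals in a non-phytotoxic solvent mixture with surfactant were sprayed preemergence onto planted seeds and postemergence onto plants 2 to 18 cm tall (1- to 4-leaf stage). After twelve to sixteen days in a greenhouse, injury was visually rated against untreated controls from 0 (no effect) to 10 (complete control).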

wheat = assay: Test B pre/postemergence wheat; assay type: in vivo, Triticum aestivum
Method in brief: as §1

surinam grass = assay: Test B pre/postemergence surinam grass; assay type: in vivo, Brachiaria decumbens
Method in brief: as §1

rice = assay: Test B flood test rice; assay type: in vivo, Oryza sativa
Method in brief: (§2)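 Read-out is a visual response score from 0 (no effect) to 10 (complete control), assigned by comparison with untreated controls. Treatment was applied at the 2-leaf stage, and plants stayed in the greenhouse for twelve to sixteen days before scoring.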

morningglory = assay: Test B pre/postemergence morningglory; assay type: in vivo, Ipomoea hederacea
Method in brief: as §1

velvetleaf = assay: Test B pre/postemergence velvetleaf; assay type: in vivo, Abutilon theophrasti
Method in brief: as §1

smallflower flatsedge = assay: Test B flood test smallflower flatsedge; assay type: in vivo, Cyperus difformis
Method in brief: as §2

giant foxtail = assay: Test B pre/postemergence giant foxtail; assay type: in vivo, Setaria faberii
Method in brief: as §1

duck salad = assay: Test B flood test duck salad; assay type: in vivo, Heteranthera limosa
Method in brief: as §2

wild oat = assay: Test B pre/postemergence wild oat; assay type: in vivo, Avena fatua
Method in brief: as §1

soybean = assay: Test B pre/postemergence soybean; assay type: in vivo, Glycine max
Method in brief: as §1

corn = assay: Test B pre/postemergence corn; assay type: in vivo, Zea mays
Method in brief: as §1

crabgrass = assay: Test B pre/postemergence crabgrass; assay type: in vivo, Digitaria sanguinalis
Method in brief: as §1

sugar beet = assay: Test B pre/postemergence sugar beet; assay type: in vivo, Beta vulgaris
Method in brief: as §1

blackgrass = assay: Test B pre/postemergence blackgrass; assay type: in vivo, Alopecurus myosuroides
Method in brief: as §1

cocklebur = assay: Test B pre/postemergence cocklebur; assay type: in vivo, Xanthium strumarium
Method in brief: as §1

bedstraw = assay: Test B pre/postemergence bedstraw; assay type: in vivo, Galium aparine; settings: Preemergence, Rate 62 g/ha; scale 0 to 10 (0 no effect, 10 complete control)
Method in brief: as §1

purple nutsedge = assay: Test B pre/postemergence purple nutsedge; assay type: in vivo, Cyperus rotundus
Method in brief: as §1

rape = assay: Test B pre/postemergence rape; assay type: in vivo, Brassica napus
Method in brief: as §1

bamyardgrass = assay: Test B flood test barnyardgrass; assay type: in vivo, Echinochloa crus-galli
Method in brief: as §2

[1] = Postemergence, Rate 125 g/ha, scale of 0 to 10 where 0 is no effect and 10 is complete control
[2] = Postemergence, Rate 250 g/ha, scale of 0 to 10, 0 is no effect, 10 is complete control
[3] = Postemergence, Rate 500 g/ha, scale of 0 to 10 where 0 is no effect and 10 is complete control
[4] = Preemergence, Rate 62 g/ha, scale 0 to 10 (0 no effect, 10 complete control)
[5] = Preemergence, Rate 125 g/ha, scale of 0 to 10 where 0 is no effect and 10 is complete control
[6] = Preemergence, Rate 500 g/ha, scale of 0 to 10 where 0 is no effect and 10 is complete control
[7] = Postemergence, Rate 62 g/ha, scale of 0 to 10, 0 is no effect, 10 is complete control
[8] = Rate 62 g/ha, flood test species, Pre-emergence, visual evaluation after twelve to sixteen days
[9] = Rate 125 g/ha, under heading Pre-emergence, flood test species, visual evaluation after twelve to sixteen days
[10] = Rate 250 g/ha, Pre-emergence (flood test species), scale 0 to 10, 0 is no effect, 10 is complete control
[11] = Rate 500 g/ha, Pre-emergence section of Table B, 0 to 10 scale (0 no effect, 10 complete control)

CCc1nc(C)c(C(C)n2c(=O)on(C(=O)N(c3ccc(Cl)cc3)C(C)C)c2=O)s1 (stereo not drawn) [Compound 590] was tested, and the “Plant response rating, Redroot pigweed” value (pigweed; [1]) was 0, the “Redroot pigweed plant response rating” value (pigweed; [2]) was 0 and the “Plant response rating, Redroot pigweed” value (pigweed; [3]) was 0. For the same compound, the “Redroot pigweed plant response rating” value (pigweed; [4]) was 0, the “Redroot pigweed plant response rating” value (pigweed; [5]) was 0 and the “Redroot pigweed plant response rating” value (pigweed; [6]) was 0. The “Plant response rating, Wheat” value (wheat; [1]) was 0, the “Wheat plant response rating” value (wheat; [2]) was 0 and the “Plant response rating, Wheat” value (wheat; [3]) was 0. For the same compound, the “Wheat plant response rating” value (wheat; [4]) was 0, the “Wheat plant response rating” value (wheat; [5]) was 0 and the “Wheat plant response rating” value (wheat; [6]) was 0. For the same compound, the “B. signalgrass plant response rating” value (surinam grass; [7]) was 0, the “Plant response rating, B. signalgrass” value (surinam grass; [1]) was 0 and the “B. signalgrass plant response rating” value (surinam grass; [2]) was 0. For the same compound, the “Plant response rating, B. signalgrass” value (surinam grass; [3]) was 0, the “B. signalgrass plant response rating” value (surinam grass; [4]) was 0 and the “B. signalgrass plant response rating” value (surinam grass; [5]) was 0. The “B. signalgrass plant response rating (0 to 10 scale, 0 is no effect, 10 is complete control)” value (surinam grass; Preemergence, Rate 250 g/ha) was 0, the “B. signalgrass plant response rating” value (surinam grass; [6]) was 0 and the “Plant response rating, Rice (0 to 10 scale, 0 is no effect, 10 is complete control)” value (rice; [8]) was 0. The “Rice plant response rating (0 to 10 scale, 0 is no effect, 10 is complete control)” value (rice; [9]) was 0, the “Rice plant response rating” value (rice; [10]) was 0 and the “Rice plant response rating” value (rice; [11]) was 0. For the same compound, the “Morningglory plant response rating” value (morningglory; [7]) was 2, the “Plant response rating, Morningglory” value (morningglory; [1]) was 3 and the “Morningglory plant response rating” value (morningglory; [2]) was 3. The “Plant response rating, Morningglory” value (morningglory; [3]) was 4, the “Morningglory plant response rating” value (morningglory; [4]) was 0 and the “Morningglory plant response rating” value (morningglory; [5]) was 0. For the same compound, the “Morningglory plant response rating” value (morningglory; [6]) was 0, the “Plant response rating, Velvetleaf” value (velvetleaf; [1]) was 0 and the “Velvetleaf plant response rating” value (velvetleaf; [2]) was 2. For the same compound, the “Plant response rating, Velvetleaf” value (velvetleaf; [3]) was 2, the “Velvetleaf plant response rating” value (velvetleaf; [4]) was 0 and the “Velvetleaf plant response rating” value (velvetleaf; [5]) was 0. For the same compound, the “Velvetleaf plant response rating” value (velvetleaf; [6]) was 0, the “Plant response rating, S. Flatsedge (0 to 10 scale, 0 is no effect, 10 is complete control)” value (smallflower flatsedge; [8]) was 0 and the “S. Flatsedge plant response rating (0 to 10 scale, 0 is no effect, 10 is complete control)” value (smallflower flatsedge; [9]) was 0. For the same compound, the “S. Flatsedge plant response rating” value (smallflower flatsedge; [10]) was 0, the “S. Flatsedge plant response rating” value (smallflower flatsedge; [11]) was 0 and the “Giant foxtail plant response rating” value (giant foxtail; [7]) was 0. The “Plant response rating, Giant foxtail” value (giant foxtail; [1]) was 0, the “Giant foxtail plant response rating” value (giant foxtail; [2]) was 0 and the “Plant response rating, Giant foxtail” value (giant foxtail; [3]) was 0. For the same compound, the “Giant foxtail plant response rating” value (giant foxtail; [4]) was 0, the “Giant foxtail plant response rating” value (giant foxtail; [5]) was 0 and the “Giant foxtail plant response rating” value (giant foxtail; [6]) was 7. The “Plant response rating, Ducksalad (0 to 10 scale, 0 is no effect, 10 is complete control)” value (duck salad; [8]) was 0, the “Ducksalad plant response rating (0 to 10 scale, 0 is no effect, 10 is complete control)” value (duck salad; [9]) was 0 and the “Ducksalad plant response rating” value (duck salad; [10]) was 0. For the same compound, the “Ducksalad plant response rating” value (duck salad; [11]) was 0, the “Plant response rating, Wild oats” value (wild oat; [1]) was 0 and the “Wild oats plant response rating” value (wild oat; [2]) was 0. For the same compound, the “Plant response rating, Wild oats” value (wild oat; [3]) was 0, the “Wild oats plant response rating” value (wild oat; [4]) was 0 and the “Wild oats plant response rating” value (wild oat; [5]) was 0. The “Wild oats plant response rating” value (wild oat; [6]) was 0, the “Plant response rating, Soybean” value (soybean; [1]) was 1 and the “Soybean plant response rating” value (soybean; [2]) was 3. The “Plant response rating, Soybean” value (soybean; [3]) was 3, the “Soybean plant response rating” value (soybean; [4]) was 0 and the “Soybean plant response rating” value (soybean; [5]) was 0. The “Soybean plant response rating” value (soybean; [6]) was 0, the “Corn plant response rating” value (corn; [7]) was 0 and the “Plant response rating, Corn” value (corn; [1]) was 0. For the same compound, the “Corn plant response rating” value (corn; [2]) was 0, the “Plant response rating, Corn” value (corn; [3]) was 0 and the “Corn plant response rating” value (corn; [4]) was 0. The “Corn plant response rating” value (corn; [5]) was 0, the “Corn plant response rating (0 to 10 scale)” value (corn; Preemergence, Rate 250 g/ha) was 0 and the “Corn plant response rating” value (corn; [6]) was 0. The “Crabgrass plant response rating” value (crabgrass; [7]) was 0, the “Plant response rating, Crabgrass” value (crabgrass; [1]) was 0 and the “Crabgrass plant response rating” value (crabgrass; [2]) was 0. The “Plant response rating, Crabgrass” value (crabgrass; [3]) was 2, the “Crabgrass plant response rating” value (crabgrass; [4]) was 0 and the “Crabgrass plant response rating” value (crabgrass; [5]) was 0. For the same compound, the “Crabgrass plant response rating” value (crabgrass; [6]) was 3, the “Plant response rating, Sugarbeets” value (sugar beet; [1]) was 0 and the “Sugarbeets plant response rating” value (sugar beet; [2]) was 0. The “Plant response rating, Sugarbeets” value (sugar beet; [3]) was 0, the “Sugarbeets plant response rating” value (sugar beet; [4]) was 0 and the “Sugarbeets plant response rating” value (sugar beet; [5]) was 0. The “Sugarbeets plant response rating” value (sugar beet; [6]) was 0, the “Blackgrass plant response rating” value (blackgrass; [7]) was 0 and the “Plant response rating, Blackgrass” value (blackgrass; [1]) was 0. For the same compound, the “Blackgrass plant response rating” value (blackgrass; [2]) was 0, the “Plant response rating, Blackgrass” value (blackgrass; [3]) was 0 and the “Blackgrass plant response rating” value (blackgrass; [4]) was 0. The “Blackgrass plant response rating” value (blackgrass; [5]) was 0, the “Blackgrass plant response rating (0 to 10 scale)” value (blackgrass; Preemergence, Rate 250 g/ha) was 0 and the “Blackgrass plant response rating” value (blackgrass; [6]) was 0. The “Cocklebur plant response rating” value (cocklebur; [7]) was 0, the “Plant response rating, Cocklebur” value (cocklebur; [1]) was 0 and the “Cocklebur plant response rating” value (cocklebur; [2]) was 0. The “Plant response rating, Cocklebur” value (cocklebur; [3]) was 0, the “Cocklebur plant response rating” value (cocklebur; [4]) was 0 and the “Cocklebur plant response rating” value (cocklebur; [5]) was 0. The “Cocklebur plant response rating (0 to 10 scale)” value (cocklebur; Preemergence, Rate 250 g/ha) was 0, the “Cocklebur plant response rating” value (cocklebur; [6]) was 0 and the “Bedstraw plant response rating” value (bedstraw) was 0. The “Nutsedge plant response rating” value (purple nutsedge; [7]) was 0, the “Plant response rating, Nutsedge” value (purple nutsedge; [1]) was 0 and the “Nutsedge plant response rating” value (purple nutsedge; [2]) was 0. The “Plant response rating, Nutsedge” value (purple nutsedge; [3]) was 0, the “Nutsedge plant response rating” value (purple nutsedge; [4]) was 0 and the “Nutsedge plant response rating” value (purple nutsedge; [5]) was 0. For the same compound, the “Nutsedge plant response rating” value (purple nutsedge; [6]) was 0, the “Rape plant response rating” value (rape; [7]) was 0 and the “Plant response rating, Rape” value (rape; [1]) was 0. The “Rape plant response rating” value (rape; [2]) was 0, the “Plant response rating, Rape” value (rape; [3]) was 0 and the “Rape plant response rating” value (rape; [4]) was 0. The “Rape plant response rating” value (rape; [5]) was 0, the “Rape plant response rating” value (rape; [6]) was 0 and the “Plant response rating, Barnyardgrass (0 to 10 scale, 0 is no effect, 10 is complete control)” value (bamyardgrass; [8]) was 0. The “Barnyardgrass plant response rating (0 to 10 scale, 0 is no effect, 10 is complete control)” value (bamyardgrass; [9]) was 0, the “Barnyardgrass plant response rating” value (bamyardgrass; [10]) was 0 and the “Barnyardgrass plant response rating” value (bamyardgrass; [11]) was 0.
